Data published in publication PMC8303886, “Polyphenylglyoxamide-Based Amphiphilic Small Molecular Peptidomimetics as Antibacterial Agents with Anti-Biofilm Activity” (International Journal of Molecular Sciences, 2021).
pIC50: −log10 of the molar value. In brackets after ≈: the same amount, converted by molar mass. Several values for one entry are separate records, joined by “and”; a condition that tells them apart may be missing. Equal values may be shown once. Read-outs that look alike come from different tables or passages of the source. One block for each compound: values may come before it.

Assays:
[1] = test system: S. aureus (SA38); conditions: previously reported, cited from earlier work
[2] = test system: S. aureus (SA38); assay: Minimum inhibitory concentration (MIC) assay against S. aureus; assay type: cell-based, Staphylococcus aureus; conditions: S. aureus SA38, read-out: MIC S. aureus
[3] = test system: MRC-5 normal human lung fibroblasts; assay: MTT cytotoxicity assay; assay type: cell-based; conditions: 72 h drug incubation; for pIC50 / IC50: read-out: IC50 against MRC-5 normal human lung fibroblasts; for IC50: Homo sapiens, MRC5, 72 h
Description: The IC50 values of the tested peptidomimetics were determined from a dose-response curve. […] The therapeutic indices for each tested peptidomimetic against Gram-positive S. aureus and Gram-negative E. coli were calculated by dividing the IC50 value against human cells by the corresponding MIC value (Table 2).
The toxicity of the peptidomimetics against normal human lung fibroblasts MRC-5 cells was measured, using an MTT (3-(4,5-dimethylthiazol-2-yl)-2,5-diphenyltetrazolium bromide) (Sigma Aldrich, St. Louis, MO, USA) colorimetric assay. The cells were cultured in minimal essential medium (MEM, Invitrogen) containing 10% foetal bovine serum (FBS). The cells were maintained at 37 °C in 5% CO2 as an adherent monolayer and was passaged upon reaching confluence by standard cell culture techniques. MRC-5 cells were seeded at 5000 cells/well in 96-well plates to ensure full confluence (quiescence) and left overnight to adhere to the plate wells. The adherent cells were treated with 1–500 μM of compounds by dissolving in DMSO and serially diluting with media. TY-01 was used as the positive control. The final concentration of DMSO was 0.5% (v/v). After the 72 h drug incubation, […] stock MTT solution (5 mg/mL) was added, and the cells were incubated for another 3.5–4 h. The MTT solution containing media was carefully aspirated without displacing the purple crystals from the bottom, and […] acid-isopropanol was added to all wells and mixed slowly by shaking with an orbital shaker to dissolve the dark blue crystals. […] The determination of IC50 values was performed using GraphPad Prism 7 (GraphPad, San Diego, CA, USA). Each experiment was performed in triplicate and was repeated in three independent experiments.

SMILES: CCCCCCCCS(=O)(=O)Nc1ccccc1C(=O)C(=O)NCCCN(C)C [Compound 10a]
MIC S. aureus [1]: 250 μM and 106 μg/mL

SMILES: CCCCCCCCS(=O)(=O)Nc1ccc(Br)cc1C(=O)C(=O)NCCCN(C)C [Compound 10b]
MIC S. aureus [1]: 94 μM and 47 μg/mL

SMILES: CCCCCCCCS(=O)(=O)Nc1ccc(-c2ccccc2)cc1C(=O)C(=O)NCCCN(C)C [Compound 10c]
MIC S. aureus [1]: 24 μM and 12 μg/mL

SMILES: CCCCCCCCS(=O)(=O)Nc1ccc(-c2ccc(-c3ccccc3)cc2)cc1C(=O)C(=O)NCCCN(C)C [Compound 10d, N-(3-(Dimethylamino)propyl)-2-(4-(octylsulfonamido)-[1,1′:4′,1″-terphenyl]-3-yl)-2-oxoacetamide]
MIC [2]: 8 µM
MIC ([2]; Staphylococcus aureus): 4.6 µg/mL
pIC50 [3]: 5.46
IC50 [3]: 2.01 µg/mL

SMILES: CCCCCCCCCCCCS(=O)(=O)Nc1ccccc1C(=O)C(=O)NCCCN(C)C [Compound 11a, N-(3-(Dimethylamino)propyl)-2-(2-(dodecylsulfonamido)phenyl)-2-oxoacetamide]
MIC [2]: 32 µM
MIC ([2]; Staphylococcus aureus): 15 µg/mL

SMILES: CCCCCCCCCCCCS(=O)(=O)Nc1ccc(Br)cc1C(=O)C(=O)NCCCN(C)C [Compound 11b, 2-(5-Bromo-2-(dodecylsulfonamido)phenyl)-N-(3-(dimethylamino)propyl)-2-oxoacetamide]
MIC [2]: 32 µM
MIC ([2]; Staphylococcus aureus): 18 µg/mL

SMILES: CCCCCCCCCCCCS(=O)(=O)Nc1ccc(-c2ccccc2)cc1C(=O)C(=O)NCCCN(C)C [Compound 11c, N-(3-(Dimethylamino)propyl)-2-(4-(dodecylsulfonamido)-[1,1′-biphenyl]-3-yl)-2-oxoacetamide]
MIC ([2]; Staphylococcus aureus): 16 µM and 8.9 µg/mL

SMILES: CCCCCCCCCCCCS(=O)(=O)Nc1ccc(-c2ccc(-c3ccccc3)cc2)cc1C(=O)C(=O)NCCCN(C)C [Compound 11d, N-(3-(Dimethylamino)propyl)-2-(4-(dodecylsulfonamido)-[1,1′:4′,1″-terphenyl]-3-yl)-2-oxoacetamide]
MIC ([2]; Staphylococcus aureus): 250 µM and 158 µg/mL

SMILES: CCCCCCCCS(=O)(=O)Nc1ccccc1C(=O)C(=O)NCCCN(C)C [Compound 13a]
MIC S. aureus [1]: > 250 μM and > 116 μg/mL

SMILES: CCCCCCCCS(=O)(=O)Nc1ccc(Br)cc1C(=O)C(=O)NCCCN(C)C [Compound 13b]
MIC S. aureus [1]: 63 μM and 34 μg/mL

SMILES: CCCCCCCCS(=O)(=O)Nc1ccc(-c2ccccc2)cc1C(=O)C(=O)NCCCN(C)C [Compound 13c]
MIC S. aureus [1]: 16 μM and 8.6 μg/mL

SMILES: CCCCCCCCS(=O)(=O)Nc1ccc(-c2cccc(-c3ccccc3)c2)cc1C(=O)C(=O)NCCCN(C)C [Compound 21, N-(3-(Dimethylamino)propyl)-2-(4-(octylsulfonamido)-[1,1′:3′,1″-terphenyl]-3-yl)-2-oxoacetamide]
MIC ([2]; Staphylococcus aureus): 16 µM and 9.2 µg/mL

SMILES: CCCCCCCCS(=O)(=O)Nc1ccc(-c2cccc(-c3ccccc3)c2)cc1C(=O)C(=O)NCCCN(C)C.Cl [Compound 22, N,N-Dimethyl-3-(2-(4-(octylsulfonamido)-[1,1′:3′,1″-terphenyl]-3-yl)-2-oxoacetamido)propan-1-aminium chloride]
MIC [2]: 16 µM
MIC ([2]; Staphylococcus aureus): 9.8 µg/mL
IC50 [3]: 3.46 µM and 2.13 µg/mL

SMILES: CCCCCCCCS(=O)(=O)Nc1ccc(-c2cccc(-c3ccccc3)c2)cc1C(=O)C(=O)NCCC[N+](C)(C)C.[I-] [Compound 23, N,N,N-Trimethyl-3-(2-(4-(octylsulfonamido)-[1,1′:3′,1″-terphenyl]-3-yl)-2-oxoacetamido)propan-1-aminium iodide]
MIC ([2]; Staphylococcus aureus): 8 µM and 5.8 µg/mL
IC50 [3]: 15.4 µM and 11.1 µg/mL

SMILES: CCCCCCCCS(=O)(=O)Nc1ccccc1C(=O)C(=O)NCCCNC(=N)N [Compound 33a]
MIC S. aureus [1]: 47 μM and 22 μg/mL

SMILES: CCCCCCCCS(=O)(=O)Nc1ccc(Br)cc1C(=O)C(=O)NCCCNC(=N)N [Compound 33b]
MIC S. aureus ([1]; listed as 1, 33b): 12 μM and 6.7 μg/mL
MIC S. aureus ([1]; listed as 1): 12 µM (≈ 6.22 µg/mL)

Second part, led by results:

MIC ([2]; Staphylococcus aureus): 63 µM and 34 µg/mL
SMILES: CCCCCCCCCCCCCCCCS(=O)(=O)Nc1ccccc1C(=O)C(=O)NCCCN(C)C [Compound 12a, N-(3-(Dimethylamino)propyl)-2-(2-(hexadecylsulfonamido)phenyl)-2-oxoacetamide]

MIC ([2]; Staphylococcus aureus): 250 µM and 154 µg/mL
SMILES: CCCCCCCCCCCCCCCCS(=O)(=O)Nc1ccc(Br)cc1C(=O)C(=O)NCCCN(C)C [Compound 12b, 2-(5-Bromo-2-(hexadecylsulfonamido)phenyl)-N-(3-(dimethylamino)propyl)-2-oxoacetamide]

MIC ([2]; Staphylococcus aureus): 16 µM and 9.8 µg/mL
SMILES: CCCCCCCCS(=O)(=O)Nc1ccc(-c2ccc(-c3ccccc3)cc2)cc1C(=O)C(=O)NCCCN(C)C.Cl [Compound 13d, N,N-Dimethyl-3-(2-(4-(octylsulfonamido)-[1,1′:4′,1″-terphenyl]-3-yl)-2-oxoacetamido)propan-1-aminium chloride]
IC50 against MRC-5 normal human lung fibroblasts [3]: 2.31 µg/mL
pIC50 [3]: 5.42
IC50 [3]: ~4 µM and ~2 µg/mL

MIC ([2]; Staphylococcus aureus): 16 µM and 8.3 µg/mL
SMILES: CCCCCCCCCCCCS(=O)(=O)Nc1ccccc1C(=O)C(=O)NCCCN(C)C.Cl [Compound 14a, 3-(2-(2-(Dodecylsulfonamido)phenyl)-2-oxoacetamido)-N,N-dimethylpropan-1-aminium chloride]

MIC ([2]; Staphylococcus aureus): 16 µM and 9.6 µg/mL
SMILES: CCCCCCCCCCCCS(=O)(=O)Nc1ccc(Br)cc1C(=O)C(=O)NCCCN(C)C.Cl [Compound 14b, 3-(2-(5-Bromo-2-(dodecylsulfonamido)phenyl)-2-oxoacetamido)-N,N-dimethylpropan-1-aminium chloride]

MIC [2]: 16 µM
MIC ([2]; Staphylococcus aureus): 9.5 µg/mL
SMILES: CCCCCCCCCCCCS(=O)(=O)Nc1ccc(-c2ccccc2)cc1C(=O)C(=O)NCCCN(C)C.Cl [Compound 14c, 3-(2-(4-(Dodecylsulfonamido)-[1,1′-biphenyl]-3-yl)-2-oxoacetamido)-N,N-dimethylpropan-1-aminium chloride]

MIC [2]: 125 µM
MIC ([2]; Staphylococcus aureus): 84 µg/mL
SMILES: CCCCCCCCCCCCS(=O)(=O)Nc1ccc(-c2ccc(-c3ccccc3)cc2)cc1C(=O)C(=O)NCCCN(C)C.Cl [Compound 14d, 3-(2-(4-(Dodecylsulfonamido)-[1,1′:4′,1″-terphenyl]-3-yl)-2-oxoacetamido)-N,N-dimethylpropan-1-aminium chloride]

MIC [2]: 63 µM
MIC ([2]; Staphylococcus aureus): 36 µg/mL
SMILES: CCCCCCCCCCCCCCCCS(=O)(=O)Nc1ccccc1C(=O)C(=O)NCCCN(C)C.Cl [Compound 15a, 3-(2-(2-(Hexadecylsulfonamido)phenyl)-2-oxoacetamido)-N,N-dimethylpropan-1-aminium chloride]

MIC [2]: 250 µM
MIC ([2]; Staphylococcus aureus): 163 µg/mL
SMILES: CCCCCCCCCCCCCCCCS(=O)(=O)Nc1ccc(Br)cc1C(=O)C(=O)NCCCN(C)C.Cl [Compound 15b, 3-(2-(5-Bromo-2-(hexadecylsulfonamido)phenyl)-2-oxoacetamido)-N,N-dimethylpropan-1-aminium chloride]

MIC [2]: > 250 µM
MIC ([2]; Staphylococcus aureus): > 163 µg/mL
SMILES: CCCCCCCCCCCCCCCCS(=O)(=O)Nc1ccc(-c2ccccc2)cc1C(=O)C(=O)NCCCN(C)C.Cl [Compound 15c, 3-(2-(4-(Hexadecylsulfonamido)-[1,1′-biphenyl]-3-yl)-2-oxoacetamido)-N,N-dimethylpropan-1-aminium chloride]

MIC ([2]; Staphylococcus aureus): 16 µM and 10 µg/mL
SMILES: CCCCCCCCCCCCS(=O)(=O)Nc1ccccc1C(=O)C(=O)NCCC[N+](C)(C)C.[I-] [Compound 17a, 3-(2-(2-(Dodecylsulfonamido)phenyl)-2-oxoacetamido)-N,N,N-trimethylpropan-1-aminium iodide]

MIC ([2]; Staphylococcus aureus): 63 µM and 48 µg/mL
SMILES: CCCCCCCCCCCCS(=O)(=O)Nc1ccc(-c2ccc(-c3ccccc3)cc2)cc1C(=O)C(=O)NCCC[N+](C)(C)C.[I-] [Compound 17d, 3-(2-(4-(Dodecylsulfonamido)-[1,1′:4′,1″-terphenyl]-3-yl)-2-oxoacetamido)-N,N,N-trimethylpropan-1-aminium iodide]

MIC ([2]; Staphylococcus aureus): 125 µM and 95 µg/mL
SMILES: CCCCCCCCCCCCCCCCS(=O)(=O)Nc1ccc(Br)cc1C(=O)C(=O)NCCC[N+](C)(C)C.[I-] [Compound 18b, 3-(2-(5-Bromo-2-(hexadecylsulfonamido)phenyl)-2-oxoacetamido)-N,N,N-trimethylpropan-1-aminium iodide]

MIC ([2]; Staphylococcus aureus): 250 µM and 189 µg/mL
SMILES: CCCCCCCCCCCCCCCCS(=O)(=O)Nc1ccc(-c2ccccc2)cc1C(=O)C(=O)NCCC[N+](C)(C)C.[I-] [Compound 18c, 3-(2-(4-(Hexadecylsulfonamido)-[1,1′-biphenyl]-3-yl)-2-oxoacetamido)-N,N,N-trimethylpropan-1-aminium iodide]

MIC ([2]; Staphylococcus aureus): 250 µM and 147 µg/mL
SMILES: CCCCCCCCCCCCCCCCS(=O)(=O)Nc1ccccc1C(=O)C(=O)NCCCNC(=N)N.Cl [Compound 35a, N-(3-Guanidinopropyl)-2-(2-(hexadecylsulfonamido)phenyl)-2-oxoacetamide hydrochloride]
